Measurements reported in patent US8796320B2, “1,3,4-Oxadiazole-2-carboxamide compound” (General Incorporated Association Pharma Valley Project …, priority 2009, dated 2014).
Where a name gives a salt, the structure may show the parent alone.

Key:
Assay type in all cases: cell-based
[1] = system: Human lymphoma SCC-3 cells; assay: SCC-3 cell growth inhibition test (MTT method); settings: 72-hour culture
Experimental: Human lymphoma SCC-3 cells purchased from Japan Health Sciences Foundation were cultured for […] at a density of 5000 cells/well in a 96-well plate with RPMI1640 (Sigma-Aldrich Corp.) containing 10% fetal bovine serum (FBS; GIBCO) as a culture medium.
Simultaneously with cell inoculation, each test compound diluted to various concentrations with an RPMI medium was added to each well. After 72-hour culture, cell growth inhibitory activity was determined by the MTT method (J. Immunol. Methods, 1993, 65, 581-593) using a microplate reader (NJ-2300, BioTek Instruments, Inc.).
The test results were indicated in a concentration (IC50) at which 50% cell growth was inhibited.

STAT3 = STAT3 transcription inhibition test (reporter gene method); settings: Homo sapiens; compound at 100 μM; STAT3 reporter HeLa stable cell line, oncostatin M 10 ng/mL, 4 hours; read-out: STAT3 transcription inhibitory activity (%)
Experimental: The inhibition of STAT3 transcription was evaluated by using STAT3 reporter HeLa stable cell line (Panomics Inc., catalog No. RC0003), a cell line for the reporter gene method, and performing the following method according to the appendix included therein.
STAT3, reporter HeLa stable cell line subcultured and maintained in a Dulbecco's modified Eagle's medium (DMEM) containing 10% fetal bovine serum, 100 units/mL penicillin, and 100 μg/mL streptomycin was inoculated at a concentration of 40000 cells/well to a 96-well plate (white) and attached to the plate by overnight incubation at 37° C. under 5% CO2. After addition of each evaluation compound adjusted to various concentrations (adjusted with a DMSO solution), the cells were precultured for 1 hour. Then, oncostatin M for activating STAT3 was added at a final concentration 10 ng/mL, and the cells were further cultured at 37° C. under 5% CO2 for 4 hours. Luciferase activity derived from the cells was determined using Steady-Glo Luciferase Assay System (Promega Corp.), and STAT3 transcriptional activity scores were calculated according to the following formula: STAT3 transcriptional activity score (%)=100×(Lchem−L0)/(LDMSO−L0) • L0: luminescence intensity obtained without stimulation with oncostatin M • Lchem: luminescence intensity obtained by the addition of a test sample • LDMSO: luminescence intensity obtained by the addition of only a solvent for dissolving a test sample
The test results were indicated in the rate of inhibition of STAT3 transcription by each compound at a concentration of 100 μM.

MDA-MB-468 = MDA-MB-468 cell growth inhibitory activity; settings: Homo sapiens; compound at 20 μM; MDA-MB-468, 72 hours
Experimental: MDA-MB-468 diluted with phenol red-free DMEM/F-12 (GIBCO; 10% FBS, 20 units/ml penicillin/streptomycin) was inoculated at a concentration of 2000 cells/well to a 96-well plate (Greiner Bio-One) and cultured overnight at 37° C. in the presence of 5% CO2. Then, a test sample solution (containing 2 (v/v)% DMSO) adjusted to 10 μM was added thereto at a concentration of 10 μL/well and contacted with the cells at 37° C. for 72 hours in the presence of 5% CO2. Each well was washed three times with a medium. Then, after addition of 100 μL/well of a medium and 20 μL/well of CellTiter 96 AQueous, One Solution Reagent (Promega Corp.), the cells were incubated at 37° C. for 2 hours in the presence of 5% CO2. Absorbance at 495 nm was measured using Multiplate reader (Molecular Devices, Inc.), and the rate of inhibition of cell growth was calculated according to the following formula: Rate of inhibition of cell growth (%)=100−100×(Abschem−bkgd)/(AbsDMSO−bkgd) • Abschem: absorbance obtained by the addition of a test sample • AbsDMSO: absorbance obtained by the addition of only a solvent for test sample dissolution • bkgd: absorbance obtained by the addition of CellTiter 96 AQueous One Solution Reagent to a medium for cell culture
The test results were indicated in the rate of inhibition of cell growth by each compound at a concentration of 20 μM.

IC50 [1] [nM] | SMILES | inhibition at 100 µM (STAT3) [%] | inhibition at 20 µM (MDA-MB-468) [%]
1900 | CC(=O)c1ccc(-c2cccc(C(=O)Nc3nnc(-c4ccco4)o3)c2)cc1 [Compound Ia-18, 4′-Acetyl-N-[5-(2-furyl)-1,3,4-oxadiazol-2-yl]-3-biphenylcarboxamide] | 71 | –
1800 | Cn1ccc2ccc(-c3cccc(C(=O)Nc4nnc(-c5ccco5)o4)c3)cc21 [Compound Ia-43, N-[5-(2-Furyl)-1,3,4-oxadiazol-2-yl]-3-(1-methyl-6-indolyl)benzenecarboxamide] | 74 | –
1100 | Cn1ccc2cc(-c3cccc(C(=O)Nc4nnc(-c5ccco5)o4)c3)ccc21 [Compound Ia-50, N-[5-(2-Furyl)-1,3,4-oxadiazol-2-yl]-3-(1-methyl-5-indolyl)benzenecarboxamide] | > 100 | 51
1800 | O=C(Nc1nnc(-c2ccco2)o1)c1cccc(-c2ccc(Cl)cc2)c1 [Compound Ia-11, 4′-Chloro-N-[5-(2-furyl)-1,3,4-oxadiazol-2-yl]-3-biphenylcarboxamide] | 67 | –
< 100 | O=C(Nc1nnc(-c2ccco2)o1)c1cccc(-c2ccc(C3CCCCC3)cc2)c1 [Compound Ia-84, 4′-Cyclohexyl-N-[5-(2-furyl)-1,3,4-oxadiazol-2-yl]-3-biphenylcarboxamide] | 74 | 68
600 | O=C(Nc1nnc(-c2ccco2)o1)c1cccc(-c2ccc(N3CCOCC3)cc2)c1 [Compound Ia-87, N-[5-(2-Furyl)-1,3,4-oxadiazol-2-yl]-4′-morpholino-3-biphenylcarboxamide formate] | 92 | –
700 | COc1ccc(-c2cc(C(=O)Nc3nnc(-c4ccco4)o3)c3sc(N4CCCCC4)nc3n2)cc1OC [Compound Ib-4, N-[5-(2-Furyl)-1,3,4-oxadiazol-2-yl]-5-(3,4-dimethoxyphenyl)-2-piperidino-7-thiazolo[4,5-b]pyridinecarboxamide] | > 100 | 78
4000 | O=Cc1ccc(-c2cccc(C(=O)Nc3nnc(-c4ccco4)o3)c2)cc1 [Compound Ia-17, 4′-Formyl-N-[5-(2-furyl)-1,3,4-oxadiazol-2-yl]-3-biphenylcarboxamide] | > 100 | 54
53000 | NS(=O)(=O)c1ccc(-c2cccc(C(=O)Nc3nnc(-c4ccco4)o3)c2)cc1 [Compound Ia-25, N-[5-(2-Furyl)-1,3,4-oxadiazol-2-yl]-4′-sulfamoyl-3-biphenylcarboxamide] | 70 | –
1800 | CN1CCc2cc(-c3cccc(C(=O)Nc4nnc(-c5ccco5)o4)c3)ccc21 [Compound Ia-44, N-[5-(2-Furyl)-1,3,4-oxadiazol-2-yl]-3-(1-methyl-5-indolinyl)benzenecarboxamide] | 58 | –
1700 | N#Cc1ccc(-c2cccc(C(=O)Nc3nnc(-c4ccco4)o3)c2)cc1 [Compound Ia-21, 4′-Cyano-N-[5-(2-furyl)-1,3,4-oxadiazol-2-yl]-3-biphenylcarboxamide] | 62 | 91
1000 | C=Cc1ccc(-c2cccc(C(=O)Nc3nnc(-c4ccco4)o3)c2)cc1 [Compound Ia-13, N-[5-(2-Furyl)-1,3,4-oxadiazol-2-yl]-4′-vinyl-3-biphenylcarboxamide] | 67 | –
– | O=C(Nc1nnc(-c2ccco2)o1)c1cc(-c2cccs2)nc2nc(N3CCCC3)sc12 [Compound Ib-26, N-[5-(2-Furyl)-1,3,4-oxadiazol-2-yl]-2-(1-pyrrolidinyl)-5-(2-thienyl)-7-thiazolo[4,5-b]pyridinecarboxamide] | 60 | 76
– | Cn1ccc2cc(-c3cc(F)cc(C(=O)Nc4nnc(-c5ccco5)o4)c3)ccc21 [Compound Ia-52, 5-Fluoro-N-[5-(2-furyl)-1,3,4-oxadiazol-2-yl]-3-(1-methyl-5-indolyl)benzenecarboxamide] | 71 | 91
– | O=C(Nc1nnc(-c2ccco2)o1)c1cccc(-c2ccc(Oc3ccccc3)cc2)c1 [Compound Ia-66, N-[5-(2-Furyl)-1,3,4-oxadiazol-2-yl]-4′-phenoxy-3-biphenylcarboxamide] | 58 | 59
16000 | COc1cc([N+](=O)[O-])ccc1-c1ccc(C(=O)Nc2nnc(-c3ccco3)o2)o1 [Compound Ic-18, N-[5-(2-Furyl)-1,3,4-oxadiazol-2-yl]-5-(2-methoxy-4-nitrophenyl)-2-furancarboxamide] | – | 76
< 100 | CCc1ccc(-c2ccc(-c3cccc(C(=O)Nc4nnc(-c5ccco5)o4)c3)cc2)cc1 [Compound Ia-78, 4″-Ethyl-N-[5-(2-Furyl)-1,3,4-oxadiazol-2-yl]-3-(p-terphenyl)carboxamide] | 70 | 64
< 100 | O=C(Nc1nnc(-c2ccco2)o1)c1cccc(-c2ccc(-c3ccc4ccccc4c3)cc2)c1 [Compound Ia-83, N-[5-(2-Furyl)-1,3,4-oxadiazol-2-yl]-4′-(2-naphthyl)-3-biphenylcarboxamide] | 75 | 71
– | C[Si](C)(C)c1ccc(-c2cccc(C(=O)Nc3nnc(-c4ccco4)o3)c2)cc1 [Compound Ia-62, N-[5-(2-Furyl)-1,3,4-oxadiazol-2-yl]-4′-trimethylsilyl-3-biphenylcarboxamide] | 76 | 71
200 | O=C(Nc1nnc(-c2ccco2)o1)c1cccc(-c2ccc(-c3ccccc3)c(F)c2)c1 [Compound Ia-76, 3′-Fluoro-N-[5-(2-furyl)-1,3,4-oxadiazol-2-yl]-3-(p-terphenyl)carboxamide] | 69 | 72
– | O=C(Nc1nnc(-c2ccco2)o1)c1cccc(-c2ccc3ccccc3c2)c1 [Compound Ia-33, N-[5-(2-Furyl)-1,3,4-oxadiazol-2-yl]-3-(2-naphthyl)benzenecarboxamide] | 90 | 98
– | O=C(Nc1nnc(-c2ccsc2)o1)c1cc(-c2ccccc2)nc2nc(N3CCCCC3)sc12 [Compound Ib-19, 5-Phenyl-2-piperidino-N-[5-(3-thienyl)-1,3,4-oxadiazol-2-yl]-7-thiazolo[4,5-b]pyridinecarboxamide] | 90 | 83
– | Cc1ccc(-c2cc(C(=O)Nc3nnc(-c4ccco4)o3)c3sc(N4CCCCC4)nc3n2)cc1 [Compound Ib-3, N-[5-(2-Furyl)-1,3,4-oxadiazol-2-yl]-5-(4-methylphenyl)-2-piperidino-7-thiazolo[4,5-b]pyridinecarboxamide] | > 100 | > 100
